From ChEMBL document CHEMBL4673350 (Bioorg Med Chem, 2021) come the findings set out here.

The nature of experiment [1]: Inhibition of recombinant N-terminal His/MBP-tagged NDM-1 (unknown origin) expressed in Escherichia coli BL21 (DE3) measured immediately by spectrophotometry.
The subject of experiment [2] is Escherichia coli DH5[alpha]. The experiment can be described thus: Inhibition of Escherichia coli DH5alpha NDM-1 assessed as MIC of meropenem at 8 mg/L by CLSI based microdilution method.
The subject of experiment [3] is Escherichia coli DH5[alpha]. The settings on record: dose 32.0 mg/L.
The test system of the next experiment is Escherichia coli. The experiment can be described thus: microbe, parasite or virus in culture. The note with it: DH5[alpha].

SMILES strings stand for the structures. ≈ marks a conversion by molar mass, not a printed value.

With `C[C@H](CS)C(=O)N1CCC(C(N)=O)CC1`, the IC50 (commonly the concentration that inhibits the measured activity by half) in experiment [1] amounted to 11.1 µM. For `C[C@H](CS)C(=O)N1CCC(CC(=O)O)CC1`, in experiment [1], the IC50 turned out to be 19.8 µM. `C[C@H](CS)C(=O)N1CCC[C@H](C(=O)O)C1`: in experiment [1], the IC50 stood at 28.4 µM. With `O=C(O)CN(CCN(CC(=O)O)CC(=O)O)CC(=O)O` [EDETIC ACID], the MIC (in experiment [2]; in experiment [3]; in the experiment with Escherichia coli) was less than 0.25 µg/mL throughout.

As to `C[C@H](CS)C(=O)N1CCC(CC(N)=O)CC1`, in experiment [1], the IC50 worked out at 27.9 µM.

With `O=C(O)[C@H]1CCCN1C(=O)C(CS)CS`, the IC50 in experiment [1] came to 75 µM. For `C[C@H](CS)C(=O)N1CCCC[C@@H]1C(=O)O`, the MIC was found to be 4 µg/mL in experiment [2] and 2 µg/mL (≈ 8.65 µM) in experiment [3]. Also, in experiment [1], the IC50 stood at 6.9 µM. For the compound `C[C@H](CS)C(=O)N1Cc2ccccc2C[C@@H]1C(=O)O`, the IC50 in experiment [1] is more than 300 µM. In the case of `C[C@H](CS)C(=O)N1CCc2ccccc2[C@@H]1C(=O)O`, the figures for the MIC in experiment [2] and in experiment [3] were 8 µg/mL and 4 µg/mL (≈ 14.3 µM), respectively. Besides, in experiment [1], the IC50 is 4.6 µM. For `C[C@H](CS)C(=O)N1CCCCC[C@@H]1C(=O)O`, the IC50 in experiment [1] was determined as 20.4 µM. With `C[C@H](CS)C(=O)N1CCC[C@@H]1C(=O)O` [D-CAPTOPRIL], in experiment [1], the IC50 was 21.8 µM. Besides, the MIC in experiment [3] came to 4 µg/mL (≈ 18.4 µM). Turning to `C[C@H](CS)C(=O)N1CCC(C(=O)O)CC1`, the figures for the MIC in experiment [2] and in experiment [3] were 4 µg/mL and 2 µg/mL (≈ 8.65 µM), respectively. The IC50 in experiment [1] is 4.9 µM.
